Measurements: patent publication US9422293B2 (priority 2006, dated 2016)

molecular target: rat TRPV1 (Rattus norvegicus (Rat), UniProt O35433); conditions: read-out: Rat IC50
Sequence (O35433 whole entry): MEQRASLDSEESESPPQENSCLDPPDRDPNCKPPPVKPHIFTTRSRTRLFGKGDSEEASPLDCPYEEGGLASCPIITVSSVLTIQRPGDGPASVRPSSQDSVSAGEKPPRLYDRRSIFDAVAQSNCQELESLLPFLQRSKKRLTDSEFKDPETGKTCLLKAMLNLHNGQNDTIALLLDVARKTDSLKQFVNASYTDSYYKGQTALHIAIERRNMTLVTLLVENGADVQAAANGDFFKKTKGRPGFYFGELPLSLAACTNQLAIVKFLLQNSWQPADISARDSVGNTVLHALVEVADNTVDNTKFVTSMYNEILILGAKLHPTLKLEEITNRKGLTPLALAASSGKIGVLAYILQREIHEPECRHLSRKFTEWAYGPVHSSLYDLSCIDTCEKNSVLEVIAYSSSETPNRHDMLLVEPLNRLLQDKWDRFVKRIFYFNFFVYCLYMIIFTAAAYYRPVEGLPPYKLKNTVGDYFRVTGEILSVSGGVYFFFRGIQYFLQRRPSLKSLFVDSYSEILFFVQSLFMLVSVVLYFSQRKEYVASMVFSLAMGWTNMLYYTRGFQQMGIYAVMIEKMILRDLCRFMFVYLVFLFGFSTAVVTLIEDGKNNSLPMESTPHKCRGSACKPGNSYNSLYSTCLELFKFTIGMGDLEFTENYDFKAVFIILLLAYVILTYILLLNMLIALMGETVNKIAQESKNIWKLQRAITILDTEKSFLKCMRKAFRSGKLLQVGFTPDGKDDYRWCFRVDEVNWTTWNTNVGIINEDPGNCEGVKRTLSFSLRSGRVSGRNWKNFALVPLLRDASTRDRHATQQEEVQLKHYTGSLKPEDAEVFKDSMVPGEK

First: CC(Oc1nc2c(c(Nc3ccc(S(=O)(=O)C(F)(F)F)cc3)n1)CCN(c1ncccc1C(F)(F)F)CC2)C1CCCCC1 (stereo not shown) [Example 318, 2-[(1-Cyclohexylethyl)oxy]-7-[3-(trifluoromethyl)pyridin-2-yl]-N-{4-[(trifluoromethyl)sulfonyl]phenyl}-6,7,8,9-tetrahydro-5H-pyrimido[4,5-d]azepin-4-amine]
Second: CC(Oc1nc2c(c(Nc3ccc(C(F)(F)F)cc3)n1)CCN(c1ncccc1C(F)(F)F)CC2)C1CCCCC1 (stereo not drawn) [Example 332, 2-[(1-Cyclohexylethyl)oxy]l-N-[4-(trifluoromethyl)phenyl]-7-[3-(trifluoromethyl)pyridin-2-yl]-6,7,8,9-tetrahydro-5H-pyrimido[4,5-d]azepin-4-amine]
The IC50 of the first is higher: over 6670 nM for the first, 2040 nM for the second.

First: O=S(=O)(c1ccc(Nc2nc(OC3CCCC3)nc3c2CCN(c2ncccc2C(F)(F)F)CC3)cc1)C(F)(F)F [Example 319, 2-(Cyclopentyloxy)-7-[3-(trifluoromethyl)pyridin-2-yl]-N-{4-[(trifluoromethyl)sulfonyl]phenyl}-6,7,8,9-tetrahydro-5H-pyrimido[4,5-d]azepin-4-amine]
Second: O=S(=O)(c1ccc(Nc2nc(OC3CCOCC3)nc3c2CCN(c2ncccc2C(F)(F)F)CC3)cc1)C(F)(F)F [Example 322, 2-(Tetrahydro-2H-pyran-4-yloxy)-7-[3-(trifluoromethyl)pyridin-2-yl]-N-{4-[(trifluoromethyl)sulfonyl]phenyl}-6,7,8,9-tetrahydro-5H-pyrimido[4,5-d]azepin-4-amine]
The IC50 of the first is 24-fold higher: 240 nM for the first, 10 nM for the second. The second is the more potent here.

First: CC(Oc1nc2c(c(Nc3ccc(S(=O)(=O)N4CCCC4)cc3)n1)CCN(c1ncccc1C(F)(F)F)CC2)C1CCCCC1 (stereo not drawn) [Example 320, 2-[(1-Cyclohexylethyl)oxy]l-N-[4-(pyrrolidin-1-ylsulfonyl)phenyl]-7-[3-(trifluoromethyl)pyridin-2-yl]-6,7,8,9-tetrahydro-5H-pyrimido[4,5-d]azepin-4-amine]
Second: O=S(=O)(c1ccc(Nc2nc(OC3CCCC3)nc3c2CCN(c2ncccc2C(F)(F)F)CC3)cc1)N1CCCC1 [Example 333, 2-(Cyclopentyloxy)-N-[4-(pyrrolidin-1-ylsulfonyl)phenyl]-7-[3-(trifluoromethyl)pyridin-2-yl]-6,7,8,9-tetrahydro-5H-pyrimido[4,5-d]azepin-4-amine]
The IC50 of the first is 2-fold lower: 20 nM for the first, 40 nM for the second. The first is the more potent here.

Going from `CN1CCCc2ccc(Nc3nc(OC4CCOC4)nc4c3CCN(c3ncccc3C(F)(F)F)CC4)cc21` (stereo not shown) [Example 323, N-(1-Methyl-1,2,3,4-tetrahydroquinolin-7-yl)-2-(tetrahydrofuran-3-yloxy)-7-[3-(trifluoromethyl)pyridin-2-yl]-6,7,8,9-tetrahydro-5H-pyrimido[4,5-d]azepin-4-amine] to `CN1CCCc2ccc(Nc3nc(OC4CCOCC4)nc4c3CCN(c3ncccc3C(F)(F)F)CC4)cc21` [Example 329, N-(1-Methyl-1,2,3,4-tetrahydroquinolin-7-yl)-2-(tetrahydro-2H-pyran-4-yloxy)-7-[3-(trifluoromethyl)pyridin-2-yl]-6,7,8,9-tetrahydro-5H-pyrimido[4,5-d]azepin-4-amine], the IC50 falls from 670 nM to 120 nM (5.6-fold).

First: CN1CCCc2ccc(Nc3nc(OC4CCCC4)nc4c3CCN(c3ncccc3C(F)(F)F)CC4)cc21 [Example 324, 2-(Cyclopentyloxy)-N-(1-methyl-1,2,3,4-tetrahydroquinolin-7-yl)-7-[3-(trifluoromethyl)pyridin-2-yl]-6,7,8,9-tetrahydro-5H-pyrimido[4,5-d]azepin-4-amine]
Second: CN1CCCc2ccc(Nc3nc(OC4CCCCC4)nc4c3CCN(c3ncccc3C(F)(F)F)CC4)cc21 [Example 328, 2-(Cyclohexyloxy)-N-(1-methyl-1,2,3,4-tetrahydroquinolin-7-yl)-7-[3-(trifluoromethyl)pyridin-2-yl]-6,7,8,9-tetrahydro-5H-pyrimido[4,5-d]azepin-4-amine]
The IC50 of the first is 2.5-fold lower: 100 nM for the first, 250 nM for the second. The first is the more potent here.

First: Cc1cc(C(F)(F)F)ccc1Nc1nc(OC(C)C2CC2)nc2c1CCN(c1ncccc1C(F)(F)F)CC2 (stereo not shown) [Example 325, 2-[(1-Cyclopropylethyl)oxy]-N-[2-methyl-4-(trifluoromethyl)phenyl]-7-[3-(trifluoromethyl)pyridin-2-yl]-6,7,8,9-tetrahydro-5H-pyrimido[4,5-d]azepin-4-amine]
Second: Cc1cc(C(F)(F)F)ccc1Nc1nc(OC2CCCCC2)nc2c1CCN(c1ncccc1C(F)(F)F)CC2 [Example 326, 2-(Cyclohexyloxy)-N-[2-methyl-4-(trifluoromethyl)phenyl]-7-[3-(trifluoromethyl)pyridin-2-yl]-6,7,8,9-tetrahydro-5H-pyrimido[4,5-d]azepin-4-amine]
The IC50 of the first is 2-fold lower: 300 nM for the first, 600 nM for the second. The first is the more potent here.

First: CCCCOc1nc2c(c(Nc3ccc(C(F)(F)F)nc3)n1)CCN(c1ncccc1C(F)(F)F)CC2 [Example 327, 2-(Butyloxy)-7-[3-(trifluoromethyl)pyridin-2-yl]-N-[6-(trifluoromethyl)pyridin-3-yl]-6,7,8,9-tetrahydro-5H-pyrimido[4,5-d]azepin-4-amine]
Second: FC(F)(F)c1ccc(Nc2nc(OC3CCCC3)nc3c2CCN(c2ncccc2C(F)(F)F)CC3)cc1 [Example 337, 2-(Cyclopentyloxy)-N-[4-(trifluoromethyl)phenyl]-7-[3-(trifluoromethyl)pyridin-2-yl]-6,7,8,9-tetrahydro-5H-pyrimido[4,5-d]azepin-4-amine]
The IC50 of the first is 5.2-fold higher: 890 nM for the first, 170 nM for the second. The second is the more potent here.

Going from `O=S(=O)(c1ccc(Nc2nc(OC3CCOC3)nc3c2CCN(c2ncccc2C(F)(F)F)CC3)cc1)C(F)(F)F` (stereo not shown) [Example 331, 2-(Tetrahydrofuran-3-yloxy)-7-[3-(trifluoromethyl)pyridin-2-yl]-N-{4-[(trifluoromethyl)sulfonyl]phenyl}-6,7,8,9-tetrahydro-5H-pyrimido[4,5-d]azepin-4-amine] to `FC(F)(F)c1ccc(Nc2nc(OC3CCOCC3)nc3c2CCN(c2ncccc2C(F)(F)F)CC3)cc1` [Example 339, 2-(Tetrahydro-2H-pyran-4-yloxy)-N-[4-(trifluoromethyl)phenyl]-7-[3-(trifluoromethyl)pyridin-2-yl]-6,7,8,9-tetrahydro-5H-pyrimido[4,5-d]azepin-4-amine], the IC50 falls from 500 nM to 190 nM (2.6-fold).

First: O=S(=O)(c1ccc(Nc2nc(OC3CCOCC3)nc3c2CCN(c2ncccc2C(F)(F)F)CC3)cc1)N1CCCC1 [Example 335, N-[4-(Pyrrolidin-1-ylsulfonyl)phenyl]-2-(tetrahydro-2H-pyran-4-yloxy)-7-[3-(trifluoromethyl)pyridin-2-yl]-6,7,8,9-tetrahydro-5H-pyrimido[4,5-d]azepin-4-amine]
Second: FC(F)(F)c1ccc(Nc2nc(OC3CCCCC3)nc3c2CCN(c2ncccc2C(F)(F)F)CC3)cc1 [Example 338, 2-(Cyclohexyloxy)-N-[4-(trifluoromethyl)phenyl]-7-[3-(trifluoromethyl)pyridin-2-yl]-6,7,8,9-tetrahydro-5H-pyrimido[4,5-d]azepin-4-amine]
The IC50 of the first is 2.7-fold lower: 150 nM for the first, 400 nM for the second. The first is the more potent here.

For `FC(F)(F)c1ccc(Nc2nc(OC3CCCCCC3)nc3c2CCN(c2ncccc2C(F)(F)F)CC3)cc1` [Example 336, 2-(Cycloheptyloxy)-N-[4-(trifluoromethyl)phenyl]-7-[3-(trifluoromethyl)pyridin-2-yl]-6,7,8,9-tetrahydro-5H-pyrimido[4,5-d]azepin-4-amine], the IC50 was 1640 nM.
